How the values were obtained:
[1] = tested on: Portulaca oleracea; assay: Post-emergence herbicidal activity test (stem and leaf spray, pot culture); type: in vivo; details: 3 weeks after spraying
In short: (§1)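 Seeds soaked 6 h at 25 °C, germinated at 28 °C, sown in loam pots and thinned to 10 plants/pot. At 2–3 leaves, plants received a single spray-tower application of 10, 5 or 2.5 g/mu. Fresh-weight control was graded 0–5 after 3 weeks.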

[2] = tested on: Amaranthus retroflexus; assay: as above; type: in vivo; details: 3 weeks after spraying
In short: as §1

[3] = tested on: Abutilon theophrasti; assay: as above; type: in vivo; details: 3 weeks after spraying
In short: as §1

[4] = tested on: Echinochloa crusgalli; assay: as above; type: in vivo; details: 3 weeks after spraying
In short: as §1

[5] = tested on: Setaria viridis; assay: as above; type: in vivo; details: 3 weeks after spraying
In short: as §1

[6] = tested on: Trifoliumre pensL.; assay: as above; type: in vivo; details: 3 weeks after spraying
In short: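 Pot-grown weeds in loam (pH 7), greenhouse at 20–30 °C, sprayed once post-emergence at the 2–3-leaf stage. Compound in acetone with Tween 80 plus methyl oleate oil (1.5 L/ha), applied at 10, 5 and 2.5 g/mu by spray tower. Effect scored 3 weeks after spraying, averaged over three repeats.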

melting point [°C] | SMILES | Post-emergence herbicidal activity, P. oleracea (grade) ([1]; dosage 2.5 g/mu) | Post-emergence herbicidal activity, P. oleracea (grade) ([1]; dosage 5 g/mu) | Post-emergence herbicidal activity, P. oleracea (grade) ([1]; dosage 10 g/mu) | Post-emergence herbicidal activity, A. retroflexus (grade) ([2]; dosage 2.5 g/mu) | Post-emergence herbicidal activity, A. retroflexus (grade) ([2]; dosage 5 g/mu) | Post-emergence herbicidal activity, A. retroflexus (grade) ([2]; dosage 10 g/mu) | Post-emergence herbicidal activity, A. theophrasti (grade) ([3]; dosage 2.5 g/mu) | Post-emergence herbicidal activity, A. theophrasti (grade) ([3]; dosage 5 g/mu) | Post-emergence herbicidal activity, A. theophrasti (grade) ([3]; dosage 10 g/mu) | Post-emergence herbicidal activity, E. crusgalli (grade) ([4]; dosage 2.5 g/mu) | Post-emergence herbicidal activity, E. crusgalli (grade) ([4]; dosage 5 g/mu) | Post-emergence herbicidal activity, E. crusgalli (grade) ([4]; dosage 10 g/mu) | Post-emergence herbicidal activity, S. viridis (grade) ([5]; dosage 2.5 g/mu) | Post-emergence herbicidal activity, S. viridis (grade) ([5]; dosage 5 g/mu) | Post-emergence herbicidal activity, S. viridis (grade) ([5]; dosage 10 g/mu) | Post-emergence herbicidal activity, Trifoliumre pensL. (grade) ([6]; dosage 2.5 g/mu) | Post-emergence herbicidal activity, Trifoliumre pensL. (grade) ([6]; dosage 5 g/mu) | Post-emergence herbicidal activity, Trifoliumre pensL. (grade) ([6]; dosage 10 g/mu)
183 to 185 | O=C(COc1cc(N2C(=O)C3=C(CCCC3)C2=O)c(F)cc1Cl)c1ccc(Br)cc1 [Compound C14, 2-(4-chloro-2-fluoro-5-(2-oxo-2-(4-bromophenyl)ethoxy)phenyl)-4,5,6,7-tetrahydro-1H-isoindole-1,3(2H)-dione] | 5 (Grade 5: the growth control rate is greater than or equal to 85%) | 5 (Grade 5: the growth control rate is greater than or equal to 85%) | 5 (Grade 5: the growth control rate is greater than or equal to 85%) | 5 (Grade 5: the growth control rate is greater than or equal to 85%) | 5 (Grade 5: the growth control rate is greater than or equal to 85%) | 5 (Grade 5: the growth control rate is greater than or equal to 85%) | 5 (Grade 5: the growth control rate is greater than or equal to 85%) | 5 (Grade 5: the growth control rate is greater than or equal to 85%) | 5 (Grade 5: the growth control rate is greater than or equal to 85%) | 1 (Grade 1: the growth control rate is greater than or equal to 5% and less than 20%) | 2 (Grade 2: the growth control rate is greater than or equal to 20% and less than 40%) | 3 (Grade 3: the growth control rate is greater than or equal to 40% and less than 60%) | 2 (Grade 2: the growth control rate is greater than or equal to 20% and less than 40%) | 3 (Grade 3: the growth control rate is greater than or equal to 40% and less than 60%) | 4 (Grade 4: the growth control rate is greater than or equal to 60% and less than 85%) | 5 (Grade 5: the growth control rate is greater than or equal to 85%) | 5 (Grade 5: the growth control rate is greater than or equal to 85%) | 5 (Grade 5: the growth control rate is greater than or equal to 85%)
158 to 162 | O=C1C2=C(CCCC2)C(=O)N1c1cc(OCc2nnc(-c3cccc(Cl)c3)o2)c(Cl)cc1F [Compound B2, 2-(4-chloro-5-((5-(3-chlorophenyl)-1,3,4-oxadiazole-2-yl)methoxy)-2-fluorophenyl)-4,5,6,7-tetrahydro-1H-isoindole-1,3(2H)-dione] | 5 (Grade 5: the growth control rate is greater than or equal to 85%) | 5 (Grade 5: the growth control rate is greater than or equal to 85%) | 5 (Grade 5: the growth control rate is greater than or equal to 85%) | 5 (Grade 5: the growth control rate is greater than or equal to 85%) | 5 (Grade 5: the growth control rate is greater than or equal to 85%) | 5 (Grade 5: the growth control rate is greater than or equal to 85%) | 5 (Grade 5: the growth control rate is greater than or equal to 85%) | 5 (Grade 5: the growth control rate is greater than or equal to 85%) | 5 (Grade 5: the growth control rate is greater than or equal to 85%) | 1 (Grade 1: the growth control rate is greater than or equal to 5% and less than 20%) | 2 (Grade 2: the growth control rate is greater than or equal to 20% and less than 40%) | 3 (Grade 3: the growth control rate is greater than or equal to 40% and less than 60%) | 2 (Grade 2: the growth control rate is greater than or equal to 20% and less than 40%) | 3 (Grade 3: the growth control rate is greater than or equal to 40% and less than 60%) | 4 (Grade 4: the growth control rate is greater than or equal to 60% and less than 85%) | 5 (Grade 5: the growth control rate is greater than or equal to 85%) | 5 (Grade 5: the growth control rate is greater than or equal to 85%) | 5 (Grade 5: the growth control rate is greater than or equal to 85%)
133 to 136 | O=C(COC(=O)c1cc(N2C(=O)C3=C(CCCC3)C2=O)c(F)cc1Cl)c1ccccc1 [Compound E2, 2-oxo-2-phenylethyl-2-chloro-5-(1,3-dioxo-1,3,4,5,6,7-hexahydro-2H-isoindole-2-yl)-4-fluorobenzoate] |  |  | 5 (Grade 5: the growth control rate is greater than or equal to 85%) |  |  | 5 (Grade 5: the growth control rate is greater than or equal to 85%) |  |  | 5 (Grade 5: the growth control rate is greater than or equal to 85%) |  |  | 3 (Grade 3: the growth control rate is greater than or equal to 40% and less than 60%) |  |  | 4 (Grade 4: the growth control rate is greater than or equal to 60% and less than 85%) |  |  | 4 (Grade 4: the growth control rate is greater than or equal to 60% and less than 85%)
145 to 147 | O=C(Nc1cc(N2C(=O)C3=C(CCCC3)C2=O)c(F)cc1Cl)C1CCC1 [Compound D9, N-(2-chloro-5-(1,3-dioxo-1,3,4,5,6,7-hexahydro-2H-isoindole-2-yl)-4-fluorophenyl)cyclobutanecarboxamide] |  |  | 5 (Grade 5: the growth control rate is greater than or equal to 85%) |  |  | 5 (Grade 5: the growth control rate is greater than or equal to 85%) |  |  | 5 (Grade 5: the growth control rate is greater than or equal to 85%) |  |  | 3 (Grade 3: the growth control rate is greater than or equal to 40% and less than 60%) |  |  | 3 (Grade 3: the growth control rate is greater than or equal to 40% and less than 60%) |  |  | 5 (Grade 5: the growth control rate is greater than or equal to 85%)
148 to 150 | O=C(COc1cc(N2C(=O)C3=C(CCCC3)C2=O)c(F)cc1Cl)c1ccc(Cl)cc1 [Compound C11, 2-(4-chloro-2-fluoro-5-(2-oxo-2-(4-chlorophenyl)ethoxy)phenyl)-4,5,6,7-tetrahydro-1H-isoindole-1,3(2H)-dione] | 5 (Grade 5: the growth control rate is greater than or equal to 85%) | 5 (Grade 5: the growth control rate is greater than or equal to 85%) | 5 (Grade 5: the growth control rate is greater than or equal to 85%) | 5 (Grade 5: the growth control rate is greater than or equal to 85%) | 5 (Grade 5: the growth control rate is greater than or equal to 85%) | 5 (Grade 5: the growth control rate is greater than or equal to 85%) | 5 (Grade 5: the growth control rate is greater than or equal to 85%) | 5 (Grade 5: the growth control rate is greater than or equal to 85%) | 5 (Grade 5: the growth control rate is greater than or equal to 85%) | 1 (Grade 1: the growth control rate is greater than or equal to 5% and less than 20%) | 2 (Grade 2: the growth control rate is greater than or equal to 20% and less than 40%) | 3 (Grade 3: the growth control rate is greater than or equal to 40% and less than 60%) | 2 (Grade 2: the growth control rate is greater than or equal to 20% and less than 40%) | 3 (Grade 3: the growth control rate is greater than or equal to 40% and less than 60%) | 4 (Grade 4: the growth control rate is greater than or equal to 60% and less than 85%) | 5 (Grade 5: the growth control rate is greater than or equal to 85%) | 5 (Grade 5: the growth control rate is greater than or equal to 85%) | 5 (Grade 5: the growth control rate is greater than or equal to 85%)

— US20240300932A1, “N-PHENYLIMINE DERIVATIVE AND PREPARATION METHOD AND USE THEREOF” (Guizhou University, priority 2023, published 2024)
